In patent US9670217B2, “Process for preparing chlorins and their pharmaceutical uses” (UNIVERSIDADE DE COIMBRA, priority 2008, dated 2017):
“And” between values parts separate entries of the source, which are not always exact repeats. Equal entries are not always repeated.

Tests used:
[1] = Absorption spectra (λmax, molar absorption coefficient); assay type: physicochemical; conditions: for λmax / εmax: ethanol solutions
[2] = Fluorescence quantum yield; assay type: physicochemical; conditions: ethanol
Description: The absorptions of both reference and sample solutions were matched at ca 0.2 at the excitation wavelength of 515.5 nm, and the solutions were diluted by a factor 10 before collecting the fluorescence. The fluorescence quantum yield was obtained from the ratio of the fluorescence bands of the sample vs the reference, multiplied by the fluorescence quantum yield of the reference, 0.012 according to [12], after correction for the difference of refractive indexes of ethanol and toluene.
This is indicative of little aggregation between the molecules, which exist mostly as monomers at these concentrations in the solvents studied. Table 1 presents typical red and infrared molar absorption coefficients (εmax) and wavelength maxima. The same table also presents representative fluorescence quantum yields (ΦF) of Luzitins. The fluorescence quantum yields decrease of these molecules decrease in the presence of chlorine substituents, a fingerprint of the heavy atom effect expected for such molecules.

[3] = n-octanol:water partition coefficient (shake-flask); assay type: physicochemical
Description: The n-octanol:water partition coefficients (CP) were measured using a minor modification of the shake-flask method described by some of us in the literature. The modification concerned the excitation of the absorption band ca 500 nm and the collection of the fluorescence in the red/IR region.

[4] = system: CT26 (murine colon carcinoma); assay: Cell photosensitization, 748 nm diode laser, resazurin; assay type: cell-based, mouse; conditions: for concentration of sensitizer required to kill 90% of cells (LD90): 6 J/cm^2 diode laser irradiation at 28.5 mW
[5] = Singlet oxygen quantum yield and lifetime (1270 nm phosphorescence); assay type: physicochemical; conditions: air-saturated ethanol; for ΦΔ (singlet oxygen quantum yield): phenalenone as reference
Description: (§1) Absorption spectra were recorded on a Shimadzu UV-2100 spectrophotometer or with a Carry 50 Biospectrophotometer (Varian, Mulgrave, USA). Fluorescence spectra were measured with a Spex Fluorolog 3 spectrophotometer, with correction for the wavelength dependence system (RCA C31034 photomultiplier), or with a PerkinElmer LS 50 spectrofluorimeter. Transient absorption spectra were measured with an Applied Photophysics LKS 60 nanosecond laser flash photolysis kinetic spectrometer, using the third harmonic of a Spectra-Physics Quanta Ray GCR 130-01 Nd/YAG laser for excitation, a Hamamatsu 1P28 photomultiplier and a Hewlett-Packard Infinium oscilloscope (1 GS/s). Flash photolysis measurements were made in the presence of air and in argon saturated solutions. Photoacoustic calorimetry employed the same Nd/YAG laser, a home-made front-face photoacoustic cell with a 2.25 MHz Panametrics transducer (model 5676) and a Tektronix DSA 601 transient recorder. Room-temperature singlet-oxygen phosphorescence was measured at 1270 nm with a Hamamatsu R5509-42 photomultiplier, cooled to 193 K in a liquid nitrogen chamber (Products for Research model PC176TSCE005), following laser excitation of aerated solutions at 355 nm, using an adapted Applied Photophysics spectrometer. Singlet oxygen emission at 1270 nm was also monitored with a liquid nitrogen-cooled germanium detector (North Coast) coupled to a Tectronix Digitizing scope (TDS 520B), following sample excitation with 5 ns laser pulses of the third harmonic (355 nm) generated by a Q-switched Nd:YAG laser (Continuum Surelite II).
Singlet oxygen quantum yields in ethanol were obtained using a procedure described by some of us, using phenalenone as reference. The literature value for the singlet oxygen quantum yield obtained with phenalenone in ethanol is ΦΔ=0.95 [38].
All the singlet oxygen emissions measured in aerated ethanol solutions are very well described by mono-exponential decays, with typical singlet oxygen lifetimes (τΔ). The ΦΔ values of Table 1 were obtained by the procedures described above and are representative of these photosensitisers.
An air-saturated solution of Luzitin-Cl2Hep in ethanol with an absorbance ca. 0.2 at 355 nm was excited in a 1 cm quartz cuvette by a pulsed Nd:YAG laser, and the singlet oxygen emission was followed at 1270 nm, using the equipment and methods previously described. The intensity of the singlet oxygen phosphorescence was studied as a function of the laser intensity. A similar study was made with phenalenone in ethanol, at a concentration matching the absorbance of Luzitin-Cl2Hep at 355 nm. […] Various laser energies were employed and from the slopes of the energy dependence of singlet oxygen emission and the value of ΦΔ=0.95 for phenalenone in this ethanol, we obtained ΦΔ=0.78 for Luzitin-Cl2Hep.

[6] = system: HT-29 (human adenocarcinoma); assay: Cell photosensitization, 748 nm diode laser, resazurin; assay type: cell-based; conditions: for concentration of sensitizer required to kill 90% of cells (LD90): 6 J/cm^2 diode laser irradiation at 28.5 mW
[7] = Triplet lifetime by laser flash photolysis; assay type: physicochemical; conditions: air-saturated ethanol
Description: as §1
The triplet-triplet absorption spectra and the triplet lifetimes of the photosensitisers (τT) were measured with the transient absorption spectra equipment described above, with excitation at 355 nm, where the solutions had absorbances between 0.25 and 0.30.
The triplet-triplet absorption spectra of the Luzitins measured in this work were in good agreement with that in the literature data for chlorins and bacteriochlorins. All triplet decays were clearly mono-exponential. […] Such values are consistent with diffusion limited energy transfer from the triplet state of the sensitizer to molecular oxygen through a charge-transfer interaction.

[8] = corrected for the chlorin content

SMILES	λmax [1] [nm]	εmax [1, 8]	ΦF (fluorescence quantum yield) [2]	log KOW (n-octanol:water partition coefficient) [3]	concentration of sensitizer required to kill 90% of cells (LD90) [4] [µM]	τΔ (singlet oxygen lifetime) [5] [μsec]	ΦΔ (singlet oxygen quantum yield) [5]	cell kill ([6]; 1 μM, laser light dose 6 J/cm^2, incubation 18 hours) [%]	concentration of sensitizer required to kill 90% of cells (LD90) [6]	τT (air) triplet lifetime [7] [nsec]	cell kill ([4]; 10 μM, laser light dose 6 J/cm^2, incubation 18 hours) [%]	enhancement of ε at 750 nm band, more polar atropisomer fraction (βα3+α4) [1] [%]	εmax of the more polar atropisomer fraction (βα3+α4) ([1]; at 748 nm (750 nm band), estimated)	εmax [1]
CNS(=O)(=O)c1ccc(F)c(-c2c3nc(c(-c4cc(S(=O)(=O)NC)ccc4F)c4ccc([nH]4)c(-c4cc(S(=O)(=O)NC)ccc4F)c4nc(c(-c5cc(S(=O)(=O)NC)ccc5F)c5ccc2[nH]5)CC4)CC3)c1 [Luzitin-FMet, 5,10,15,20-tetrakis(2-fluoro-5-N-methylsulfamoylphenyl)bacteriochlorin]	742.5	62,000^d) M^−1 cm^−1	0.0589	2.3	1.0	14.1	0.71	100	0.5 µM and 1 µM	–	–	–	–	–
O=S(=O)(O)c1ccc(Cl)c(-c2c3nc(c(-c4c(Cl)ccc(S(=O)(=O)O)c4Cl)c4ccc([nH]4)c(-c4c(Cl)ccc(S(=O)(=O)O)c4Cl)c4nc(c(-c5c(Cl)ccc(S(=O)(=O)O)c5Cl)c5ccc2[nH]5)CC4)CC3)c1Cl [Luzitin-Cl2, 5,10,15,20-tetrakis(2,6-dichloro-3-sulfonylphenyl)bacteriochlorin]	745.0	27,000^d) M^−1 cm^−1	0.0062	−1.75	–	15.4	0.85	–	50 µM	226	100	–	–	–
CCNS(=O)(=O)c1ccc(Cl)c(-c2c3nc(c(-c4c(Cl)ccc(S(=O)(=O)NCC)c4Cl)c4ccc([nH]4)c(-c4c(Cl)ccc(S(=O)(=O)NCC)c4Cl)c4nc(c(-c5c(Cl)ccc(S(=O)(=O)NCC)c5Cl)c5ccc2[nH]5)CC4)CC3)c1Cl [Luzitin-Cl2Et, 5,10,15,20-tetrakis(2,6-dichloro-3-N-ethylsulfamoylphenyl)bacteriochlorin]	745.5	–	0.0081	1.8	5	13.7	0.66	–	10 µM	265	–	50	150,000 M^−1 cm^−1	96,000 M^−1 cm^−1
O=S(=O)(O)c1ccc(Cl)c(-c2c3nc(c(-c4cc(S(=O)(=O)O)ccc4Cl)c4ccc([nH]4)c(-c4cc(S(=O)(=O)O)ccc4Cl)c4nc(c(-c5cc(S(=O)(=O)O)ccc5Cl)c5ccc2[nH]5)CC4)CC3)c1 [Luzitin-Cl, 5,10,15,20-tetrakis(2-chloro-5-sulfonylphenyl)bacteriochlorin]	746.5	23,000^d) M^−1 cm^−1	0.0403	−1.70	–	13.6	0.43	–	–	240	–	–	–	–
